Test results reported in patent US6455076B1, “Formulations and methods for reducing skin irritation” (priority 1994, dated 2002).
Where two headings read alike, the source gives them in different places.

Assays:
[1] = test system: skin irritation caused by lactic acid; assay type: in vivo, human; details: for average inhibition of cumulative irritation (Percent Inhibition): cation salt 250 mM in 7.5% lactic acid irritant composition, applied to face, vs equimolar sodium chloride control, average over trials; for Percent Inhibition (cumulative irritation): representative panels, cation 250 mM, 7.5% lactic acid; for Percent Inhibition (cumulative irritation), dose-response: lactic acid irritation protocol
Protocol: The trials were conducted in a double blind, randomized, vehicle-controlled manner. Various formulations of the invention were tested in over 150 people.
Tests were conducted in multiple panels of from 7 to 12 subjects each. Subjects were instructed not to wear any makeup or facial lotions to the clinic the day of testing. T he subjects were instructed to wash their face with Ivory bar soap in the clinic prior to application of test solutions.
Lactic acid skin-irritant compositions were formulated in an appropriate vehicle prior to application to the skin of the subjects. […] […] The test formulation was applied to a defined portion of the subject's skin, typically the face. Controls were performed by applying a corresponding formulation with an equimolar amount of sodium chloride to a contralateral portion of the subject's skin.
All test solutions (including controls) were applied in a double blind, randomized fashion using the prepared solutions as previously placed in coded vial designated for use on either the right or left side of the face (or other test area). Solutions were typically applied using a cotton swab (six strokes) or sponge applicator to the face and cheek area extending from the midline of the nose over to the center of the cheek and from the cheek bone down to the jaw line. Application was made first to the right side and then to the left.
Sensory assessment scores were recorded for each treated side of the subject's skin every minute for 15 minutes or until three consecutive scores of “zero” irritation were obtained. The following scaled scores were used for sensory assessment:
Symptom scores were cumulated, separately for the cation-treated and control-treated areas, for each individual and also for the panel as a whole. Individuals not reporting a cumulative score of at least “7” on at least one treatment area were excluded (in a blinded fashion) from further analysis in order to ascertain anti-irritant efficacy with respect to the more severely-susceptible test subjects. From a practical standpoint, scores of “0” and “1” on the above scale would be considered highly desirable for a commercial product because such a response would likely not result in a consumer ceasing to use a product. Some consumers, in fact, might view the “barely perceptible” sensations represented by a score of 1 to be an indication that a facial treatment skin care product (especially an exfoliant) was working as advertised. By contrast, irritation scores of “2”, “3” and “4” would likely often result in a consumer never purchasing the product again.

skin irritation = test: Cation salts formulated in commercial topical cosmetic product, inhibition of skin irritation; assay type: in vivo; details: various amounts combined with Elizabeth Arden Visible Difference Refining Toner (alcohol-containing solution)
Description: Cation salts of the invention were formulated at various concentrations in various commercially available topical cosmetic products.

[2] = topical application, lactic acid induced stinging, burning, tingling, itching, erythema

| Compound | average inhibition of cumulative irritation (Percent Inhibition) [1] [%] | anti-irritant activity in clinical trials (in words) [1, 2] | Percent Inhibition (cumulative irritation) ([1]; vehicle 10% EtOH) [%] | inhibition of skin irritation (in words) (skin irritation) | other results |
| --- | --- | --- | --- | --- | --- |
| stannous chloride | 50 | particularly active as anti-irritants | – | – | anti-irritant efficacy in panel test (FIGS. 1-4, in words) ([1]; 250 mM, one panel, time course and cumulative irritation): overall efficacy of the subject formulation is clear; Percent Inhibition (cumulative irritation) ([1]; vehicle 33.75% H2O/33.75% Gly/25% EtOH): 50% |
| O=[N+]([O-])[O-].O=[N+]([O-])[O-].[Sn+2] [stannous nitrate] | – | – | – | – | anti-irritant activity in clinical trials (in words) ([1]; human, in vivo): particularly active as anti-irritants |
| [Sn+2] [tin(II) (Sn^2+), tin(II)] | – | effective | – | – | – |
| [Cl][Al]([Cl])[Cl] [Aluminum chloride, aluminum chloride] | 46 | particularly active as anti-irritants | 43 | effective to inhibit skin irritation | Percent Inhibition (cumulative irritation), dose-response ([1]; salt concentration 31 mM): 12%; Percent Inhibition (cumulative irritation), dose-response ([1]; salt concentration 62 mM): 54%; Percent Inhibition (cumulative irritation), dose-response ([1]; salt concentration 125 mM): 50%; Percent Inhibition (cumulative irritation), dose-response ([1]; salt concentration 250 mM): 42%; Percent Inhibition (cumulative irritation), dose-response ([1]; salt concentration 500 mM): 44% |
| [F][Sn][F] [Stannous fluoride, stannous fluoride] | 15 | – | 17 | effective to inhibit skin irritation | – |
